As usually defined, the IC50 is the point on the concentration scale where inhibition reaches its midpoint.

Structures are written as SMILES.

The text below walks through data of patent US20210198277A1, “AMINE-SUBSTITUTED ARYL OR HETEROARYL COMPOUNDS” (Epizyme, Inc., priority 2016, published 2021).

For the assay, the target named is T1, EHMT2 (Homo sapiens, UniProt Q96KQ7).
T1 construct: host or cells: MDA-MB-231
T1 sequence (Q96KQ7 1-1210): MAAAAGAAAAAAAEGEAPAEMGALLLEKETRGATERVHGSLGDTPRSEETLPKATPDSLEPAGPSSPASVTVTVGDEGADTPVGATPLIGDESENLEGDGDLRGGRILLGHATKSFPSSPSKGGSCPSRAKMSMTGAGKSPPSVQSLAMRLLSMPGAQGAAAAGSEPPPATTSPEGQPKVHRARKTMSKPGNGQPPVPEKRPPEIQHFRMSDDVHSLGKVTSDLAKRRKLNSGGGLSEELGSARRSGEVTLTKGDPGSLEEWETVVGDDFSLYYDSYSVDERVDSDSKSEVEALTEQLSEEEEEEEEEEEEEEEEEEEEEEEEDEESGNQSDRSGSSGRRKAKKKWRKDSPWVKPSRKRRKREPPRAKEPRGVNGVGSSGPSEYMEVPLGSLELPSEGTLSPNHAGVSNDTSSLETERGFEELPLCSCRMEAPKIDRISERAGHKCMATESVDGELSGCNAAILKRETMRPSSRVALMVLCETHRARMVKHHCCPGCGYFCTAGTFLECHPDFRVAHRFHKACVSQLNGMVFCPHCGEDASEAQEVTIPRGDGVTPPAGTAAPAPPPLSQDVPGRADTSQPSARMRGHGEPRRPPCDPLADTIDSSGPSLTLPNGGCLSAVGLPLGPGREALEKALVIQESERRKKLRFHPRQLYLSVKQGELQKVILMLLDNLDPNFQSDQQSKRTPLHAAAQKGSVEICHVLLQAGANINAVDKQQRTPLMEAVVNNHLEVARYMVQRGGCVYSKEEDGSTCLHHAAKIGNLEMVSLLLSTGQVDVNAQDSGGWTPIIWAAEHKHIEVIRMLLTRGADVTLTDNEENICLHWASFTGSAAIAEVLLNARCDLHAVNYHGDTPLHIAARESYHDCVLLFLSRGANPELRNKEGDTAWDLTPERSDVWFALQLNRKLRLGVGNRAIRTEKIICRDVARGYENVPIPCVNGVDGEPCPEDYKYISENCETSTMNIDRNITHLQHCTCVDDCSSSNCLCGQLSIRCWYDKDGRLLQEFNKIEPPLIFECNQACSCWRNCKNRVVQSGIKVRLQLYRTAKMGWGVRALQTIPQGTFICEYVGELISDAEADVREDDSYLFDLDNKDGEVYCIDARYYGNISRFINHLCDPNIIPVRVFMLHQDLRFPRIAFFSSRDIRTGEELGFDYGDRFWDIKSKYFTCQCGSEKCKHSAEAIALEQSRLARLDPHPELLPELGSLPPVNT
Nature of the assay: MDA-MB-231 H3K9me2 in-cell Western assay (EHMT2 ICW). It is filed as cell-based. Particulars: Table III; MDA-MB-231 H3K9me2 in-cell Western; read-out: EHMT2 ICW (IC50 μM). In short, it runs like this:
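Cellular dimethyl-H3K9 is quantified by in-cell Western in MDA-MB-231 cells treated with compound for 48 h. The H3K9me2 signal at 800 nm is normalised to DRAQ5 nuclear stain at 700 nm. IC50 is calculated from triplicate concentration points by nonlinear regression.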

Take `CNc1ccnc(Nc2ccc(OC)c(OCCCN3CCC(S(C)(=O)=O)C3)c2)n1` (stereo not shown) [Compound 282]: the IC50 was above 10 µM.
Under `CNc1cc(C)nc(Nc2ccc(OC)c(OCC3CCN(C)CC3)c2)n1` [Compound 435, N^2-(4-methoxy-3-((1-methylpiperidin-4-yl)methoxy)phenyl)-N^4,6-dimethylpyrimidine-2,4-diamine] stands 1 to 10 µM; under `CCOc1ccc(Nc2nccc(NC)n2)cc1OCCCN1CCCC1` [Compound 430, N^2-(4-ethoxy-3-(3-(pyrrolidin-1-yl)propoxy)phenyl)-N^4-methylpyrimidine-2,4-diamine], above 10 µM.
The same measure for `CNc1ccnc(N[C@@H]2CCC[C@H](OCCCN3CCCC3)C2)n1` [Compound 427]: above 10 µM.
The same measure for `CNc1cc(C)nc(Nc2ccc(C3CC3)c(OCCCN3CCCC3)c2)n1` [Compound 313, N^2-(4-cyclopropyl-3-(3-(pyrrolidin-1-yl)propoxy)phenyl)-N^4,6-dimethylpyrimidine-2,4-diamine]: 1 to 10 µM; for `CNc1ccnc(Nc2ccc(OC)c(OCCCN3CC(C)C3)c2)n1` [Compound 423, N^2-(4-methoxy-3-(3-(3-methylazetidin-1-yl)propoxy)phenyl)-N^4-methylpyrimidine-2,4-diamine]: 1 to 10 µM.
In the case of `CNc1ccnc(Nc2ccc(OC)c(OCC3CCCN3C)c2)n1` (stereo not shown) [Compound 289, N^2-(4-methoxy-3-((1-methylpyrrolidin-2-yl)methoxy)phenyl)-N^4-methylpyrimidine-2,4-diamine], the IC50 fell in the range of 0.1 to 1 µM.
Under `CNc1nc(C)cc(Nc2cc(OCCCN3CCCC3)c(OC)cn2)n1` [Compound 306, N^4-(5-methoxy-4-(3-(pyrrolidin-1-yl)propoxy)pyridin-2-yl)-N^2,6-dimethylpyrimidine-2,4-diamine] stands above 10 µM.
As to `CNc1cc(C)nc(Nc2ccc(OC)c(OCC3CN(CC4CC4)C3)c2)n1` [Compound 445, N^2-(3-((1-(cyclopropylmethyl)azetidin-3-yl)methoxy)-4-methoxyphenyl)-N^4,6-dimethylpyrimidine-2,4-diamine], the half-inhibitory concentration (IC50) fell in the range of 1 to 10 µM.
The same measure for `CNc1nc(C2CCN(C)CC2)c2cc(OC)c(OCCCN3CCCC3)cc2n1` [Compound 270]: 0.1 to 1 µM.
Under `CNc1cc(C)nc(Nc2ccc(OC)c(OCC3CCN(C4CCC4)C3)c2)n1` (stereo not shown) [Compound 446, N^2-(3-((1-cyclobutylpyrrolidin-3-yl)methoxy)-4-methoxyphenyl)-N^4,6-dimethylpyrimidine-2,4-diamine] stands 0.1 to 1 µM.
In the case of `CNc1ccnc(Nc2ccc(C3CC3)c(OCCCN3CCCC3)c2)n1` [Compound 314, N^2-(4-cyclopropyl-3-(3-(pyrrolidin-1-yl)propoxy)phenyl)-N^4-methylpyrimidine-2,4-diamine], the half-inhibitory concentration (IC50) lay within 1 to 10 µM.
As to `CNc1ccnc(Nc2ccc(OC)c(OCCCN3CCC(C#N)C3)c2)n1` (stereo not shown) [Compound 287, 1-(3-(2-methoxy-5-((4-(methylamino)pyrimidin-2-yl)amino)phenoxy)propyl)pyrrolidine-3-carbonitrile], the IC50 is above 10 µM.
On to `CNc1ccnc(Nc2ccc(OC)c(OC[C@@H]3CN(C)C[C@H]3C)c2)n1` (single isomer, unassigned) [Compound 438], for which the 50% inhibitory concentration (IC50) is above 10 µM.
The same measure for `CNc1ccnc(Nc2cccc(N3CCC(N)C3)c2)n1` (stereo not shown) [Compound 297]: above 10 µM; for `CNc1ccnc(Nc2cccc3oc(CCN(C)C)nc23)n1` [Compound 295]: above 10 µM; for `CNc1ccnc(Nc2cccc(COCCN3CCCC3)n2)c1` [Compound 267, N^4-methyl-N^2-(6-((2-(pyrrolidin-1-yl)ethoxy)methyl)pyridin-2-yl)pyridine-2,4-diamine]: above 10 µM.
The same measure for `CNc1ccnc(Nc2ccc(OC)c(OCCCN3CC[C@H](F)C3)c2)n1` [Compound 271]: above 10 µM.
Regarding `CCNC(=O)c1cc(Nc2nccc(NC)n2)ccn1` [Compound 291, N-ethyl-4-((4-(methylamino)pyrimidin-2-yl)amino)picolinamide], the half-maximal inhibitory concentration (IC50) was above 10 µM.
The same measure for `CNc1ccnc(Nc2cccc(C(C)OCCN3CCCC3)c2)n1` (stereo not shown) [Compound 279, N^4-methyl-N^2-(3-(1-(2-(pyrrolidin-1-yl)ethoxy)ethyl)phenyl) pyrimidine-2,4-diamine]: above 10 µM; for `CNc1cc(C)nc(Nc2ccc(OC)c(O[C@H]3C[C@@H](CN(C)C)C3)c2)n1` [Compound 318, N^2-(3-((1s,3s)-3-((dimethylamino)methyl)cyclobutoxy)-4-methoxyphenyl)-N^4,6-dimethylpyrimidine-2,4-diamine]: above 10 µM.
Under `CNc1cc(C)nc(Nc2ccc(OC)c(OCCCOC)c2)n1` [Compound 312, N^2-(4-methoxy-3-(3-methoxypropoxy)phenyl)-N^4,6-dimethylpyrimidine-2,4-diamine] stands above 10 µM; under `CNc1cc(C)nc(Nc2ccc(OC)c(OCC3CNC3)c2)n1` [Compound 437, N^2-(3-(azetidin-3-ylmethoxy)-4-methoxyphenyl)-N^4,6-dimethylpyrimidine-2,4-diamine], 1 to 10 µM; under `CNc1ccnc(Nc2ccc(OC)c(OCCCN3CC(OC)C3)c2)n1` [Compound 425, N^2-(4-methoxy-3-(3-(3-methoxyazetidin-1-yl)propoxy)phenyl)-N^4-methylpyrimidine-2,4-diamine], 1 to 10 µM.
Take `CCN(CC)CCCOc1cc(Nc2nccc(NC)n2)ccc1OC` [Compound 280, N^2-(3-(3-(diethylamino)propoxy)-4-methoxyphenyl)-N^4-methylpyrimidine-2,4-diamine]: the IC50 lay in the range of 1 to 10 µM.
The same measure for `COc1cnc(Nc2cnc3ccccn23)cc1OCCCN1CCCC1` [Compound 321, N-(5-methoxy-4-(3-(pyrrolidin-1-yl)propoxy)pyridin-2-yl)imidazo[1,2-a]pyridin-3-amine]: above 10 µM; for `COc1cnc(Nc2nccc3[nH]ccc23)cc1OCCCN1CCCC1` [Compound 304]: 0.1 to 1 µM.
Take `CNc1cc(N2CCCC2)nc(Nc2ccc(OC)c(OCCCN3CCCC3)c2)n1` [Compound 450, N^2-(4-methoxy-3-(3-(pyrrolidin-1-yl)propoxy)phenyl)-N^4-methyl-6-(pyrrolidin-1-yl)pyrimidine-2,4-diamine]: the half-maximal inhibitory concentration (IC50) is above 10 µM.
The same measure for `CCN1CC(COc2cc(Nc3nc(C)cc(NC)n3)ccc2OC)C1` [Compound 444]: 0.1 to 1 µM; for `CNc1ccnc(Nc2ccc(OC)c(OCCOC3CCCC3)c2)n1` [Compound 440, N^2-(3-(2-(cyclopentyloxy)ethoxy)-4-methoxyphenyl)-N^4-methylpyrimidine-2,4-diamine]: above 10 µM; for `CNc1ccnc(Nc2ccc(OC)c(OCCCN3CCC(O)C3)c2)n1` (stereo not shown) [Compound 286, 1-(3-(2-methoxy-5-((4-(methylamino)pyrimidin-2-yl)amino)phenoxy)propyl)pyrrolidin-3-ol]: 0.1 to 1 µM.
The same measure for `CNc1ccnc(Nc2cccc(OCC(F)(F)CN3CCCC3)c2)n1` [Compound 277, N^2-(3-(2,2-difluoro-3-(pyrrolidin-1-yl)propoxy)phenyl)-N^4-methylpyrimidine-2,4-diamine]: above 10 µM.
`CNc1ccnc(Nc2ccc(OC)c(OCCCN(C)CC3CC3)c2)n1` [Compound 424, N^2-(3-(3-((cyclopropylmethyl)(methyl)amino)propoxy)-4-methoxyphenyl)-N^4-methylpyrimidine-2,4-diamine]: the IC50 is 1 to 10 µM.
Consider `CNc1cc(C)nc(Nc2ccc(OC)c(OC[C@H]3C[C@@H](N(C)C)C3)c2)n1` [Compound 316], for which the 50% inhibitory concentration (IC50) is 1 to 10 µM.
On to `CNc1ccnc(Nc2ccc(OC)c(OCc3noc(C4CC4)n3)c2)n1` [Compound 433, N^2-(3-((5-cyclopropyl-1,2,4-oxadiazol-3-yl)methoxy)-4-methoxyphenyl)-N^4-methylpyrimidine-2,4-diamine], for which the half-maximal inhibitory concentration (IC50) was above 10 µM.
The same measure for `CCOc1ccc(Nc2nc(C)cc(NC)n2)cc1OCCCN1CCCC1` [Compound 432, N^2-(4-ethoxy-3-(3-(pyrrolidin-1-yl)propoxy)phenyl)-N^4,6-dimethylpyrimidine-2,4-diamine]: above 10 µM; for `COc1ccc(Nc2nccc(NCC3CC(C)(C)NC(C)(C)C3)n2)cc1OCCCN1CCCC1` [Compound 278]: 1 to 10 µM.
